Test results reported in the supplement of paper PMC10307832.

Assays:
Experiment in all cases: relative viability (nuclei count vs DMSO), 5 days (fraction); higher = more cells survive
[1] = compound: c1ccc2c(CCNc3ccc(Nc4ccncc4)cc3)c[nH]c2c1 [Serdemetan]
Summary of the method: (§1)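 MetaXpress counted nuclei in 4× images of lung cancer cell lines that had been fixed, permeabilised and Hoechst-stained in one step. Before that, cells in 1536-well plates were kept overnight at 37 °C, pinned with five √10-spaced library-drug doses on vehicle-anchored plates, and cultured 5 days without medium change. Viability takes treated-well nuclei over vehicle-well nuclei and uses the median across plates. Plates were accepted only at control CV below 25% and at least one doubling.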

[2] = compound: C1CC(C2=C(C1)C3=C(N2)C=CC(=C3)Cl)C(=O)N [Selisistat]
Summary of the method: as §1

[3] = compound: C1CC(C2=C(C1)C3=C(N2)C=CC(=C3)Cl)C(=O)N [Selisistat] + Nc1ncn([C@H]2C[C@H](O)[C@@H](CO)O2)c(=O)n1 [Decitabine] (partner 2 µM)
Summary of the method: (§2)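 Dosing by pin tool came one day after lung cancer cell lines were seeded in 1536-well plates, using either one drug or a fixed anchor-drug dose plus five library-drug doses (not always all listed) in √10 steps. After 5 days, nuclei were counted on 4× images. Relative viability is treated-well nuclei count divided by vehicle-well nuclei count, and values are medians of duplicate plates.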

[4] = compound: C1CC(C2=C(C1)C3=C(N2)C=CC(=C3)Cl)C(=O)N [Selisistat] + O=C(CCCCCCC(=O)Nc1ccccc1)NO [Vorinostat] (partner 1 µM)
Summary of the method: as §2

UMC-11 was tested, and the relative viability ([1]; 0.04 µM) was 0.935, the relative viability ([1]; 0.1265 µM) was 1.01 and the relative viability ([1]; 0.4 µM) was 0.902. It also gave a relative viability ([1]; 1.265 µM) of 0.661, a relative viability ([1]; 4 µM) of 0.924 and a relative viability ([2]; 0.4 µM) of 1. For the same cell line, the relative viability ([2]; 1.265 µM) was 0.962, the relative viability ([2]; 4 µM) was 0.883 and the relative viability ([2]; 12.65 µM) was 0.978. It also gave a relative viability ([2]; 40 µM) of 1.06, a relative viability ([3]; first compound 0.4 µM) of 0.604 and a relative viability ([3]; first compound 1.265 µM) of 0.688. It also gave a relative viability ([3]; first compound 4 µM) of 0.646, a relative viability ([3]; first compound 12.65 µM) of 0.676 and a relative viability ([3]; first compound 40 µM) of 0.637. The relative viability ([4]; first compound 0.4 µM) was 0.456, the relative viability ([4]; first compound 1.265 µM) was 0.477 and the relative viability ([4]; first compound 4 µM) was 0.531. The relative viability ([4]; first compound 12.65 µM) was 0.504 and the relative viability ([4]; first compound 40 µM) was 0.593.
